Legend:
Format in all cases: in vivo
[1] = system: spring wheat (Triticum aestivum L.) of the variety Taifun; experiment: Whole plant transpiration analysis
Protocol: For whole plant transpiration analysis, spring wheat (Triticum aestivum L.) of the variety Taifun was grown under pest free conditions in 1.2 L growth columns filled with a field soil (sandy loam). Plants were daily watered to a target soil water content of 0.25 g H2O g^-1 dry soil. Plant growth and transpiration analysis was in growth chambers at 25/18 °C (day/night), 60 % relative humidity and a light intensity of 600 µmol m^-2 s^-1 at 14 hours of photoperiod. Transpiration was measured by monitoring the weight of the plant-pot-system with an automated weighing system. Application of compound I formulated as EC 100 at 75 g ha^-1 was done with a track sprayer at 200 L ha^-1 when plants were at BBCH 23. Transpiration was monitored at optimal watering for seven days after application, afterwards watering was stopped. The experimental layout was a randomized complete block design with nine replications per treatment; one experimental unit was two plants per pot. The transpiration before treatment was used as covariant for statistical analysis (ANOVA, Agstat 1.6 / ACSAP 4.29).

Durum wheat = experiment: Crop enhancement effect on wheat under drought conditions in the field (Example 1c); settings: for Protein content / Grain Yield / TGW / No. of grains per ear: 75.0 g a.i/ha at BBCH GS 39; for Grain Yield / TGW: adjusted to 10% standard moisture; for No. of grains per ear: average of 10 ears per plot
Protocol: Durum wheat (plot size 24m^2) was treated with a single application at BBCH GS 39 (flag leaf stage) with the compound of formula I at a rate of 75.0 g a.i/ha. The plants were split into non-irrigated (only rainfed) and irrigated with 50% of evapotranspiration compensation. Untreated check plants were also included in both water supply conditions. These water supply conditions were maintained during the reproductive stages of plant growth (BBCH 55-73). The trial was carried out with six replicates.
At the end of the trial, a 12m^2 plot was harvested from each of four replicates for each water supply condition. […]
In addition to the above factors, the Normalised Difference Vegetation Index (NDVI) was also assessed. This is an estimate of the photosynthetically absorbed radiation over the crop surfaces and allows an estimate of the Leaf Area Index in order to track plant growth and vigour. The NDVI was measured several times during the trial with two handheld crop devices with active light source optical sensors: GreenSeeker HCS-100 (7 measurements) and RapidSCAN CS-45 (5 measurements).

Soybean plants [2] = experiment: Crop enhancement effect on soybean under drought conditions, yield analysis (Example 2a); settings: drought until day 65
Protocol: Soybean plants were grown in pots. The plants were treated at R1 (36 days after sewing) or R3 (44 days after sewing) with the compound of formula I at 0.75 l/ha. An untreated control plant was also included. After treatment, the plants were subjected to drought conditions until the end of the trial at day 65. Five replicates of the control and each treatment were harvested for analysis of yield and enzymatic activity. […]

glutathione reductase = experiment: Enzymatic analysis of soybean plants under drought conditions (Example 2a); settings: 0.75 l/ha at R1 or R3
Protocol: Soybean plants were grown in pots. The plants were treated at R1 (36 days after sewing) or R3 (44 days after sewing) with the compound of formula I at 0.75 l/ha. An untreated control plant was also included. After treatment, the plants were subjected to drought conditions until the end of the trial at day 65. Five replicates of the control and each treatment were harvested for analysis of yield and enzymatic activity.

Soybean plants [3] = experiment: Crop enhancement effect on soybean under drought conditions, then optimal conditions (Example 2b); settings: 0.75 l/ha @ R1
Protocol: Soybean plants were grown in pots. The plants were treated at R1 (33 days after sewing) or three days before R3 (40 days after sewing) with the compound of formula I at 0.75 l/ha. An untreated control plant was also included. After treatment, the plants were subjected to drought conditions for 21 days before being allowed to grow under optimal conditions for a further 25 days. Eight replicates of the control and each treatment were harvested for analysis of yield and chlorophyll content. […]

SMILES: Cn1cc(C(=O)Nc2cccc3c2C2CCC3C2=C(Cl)Cl)c(C(F)F)n1 (stereo not drawn) [Compound I, benzovindiflupyr]
- impact on biomass accumulation ([1]; EC 100 at 75 g ha^-1): no negative impact
- transpiration decrease compared to untreated control plants ([1]; EC 100 at 75 g ha^-1, BBCH 23, within one day, constant soil water content): about 8%
- shoot dry weight ([1]; EC 100 at 75 g ha^-1, end of the experiment, control plants same value): 6.3 ± 0.4 g plant^-1
- transpiration rate during soil drying compared to untreated control plants ([1]; EC 100 at 75 g ha^-1, irrigation withheld eight days after application): transiently higher transpiration rate
- duration of transpiration decrease ([1]; EC 100 at 75 g ha^-1, optimal watering): consistent for at least seven days
- Protein content (Durum wheat; 50% ET compensation): 15.45%
- Grain Yield (Durum wheat; 50% ET compensation): 60.60 dT/Ha
- TGW (Durum wheat; 50% ET compensation): 45.78 g
- No. of grains per ear (Durum wheat; 50% ET compensation): 42.08
- Normalised Difference Vegetation Index (NDVI) (Durum wheat; GreenSeeker HCS-100, BBCH 69(1), 50% ET compensation): 0.820
- Normalised Difference Vegetation Index (NDVI) (Durum wheat; GreenSeeker HCS-100, BBCH 69(1), non-irrigated): 0.788
- Normalised Difference Vegetation Index (NDVI) (Durum wheat; GreenSeeker HCS-100, BBCH 69(2), 50% ET compensation): 0.787
- Normalised Difference Vegetation Index (NDVI) (Durum wheat; GreenSeeker HCS-100, BBCH 69(2), non-irrigated): 0.747
- Normalised Difference Vegetation Index (NDVI) (Durum wheat; GreenSeeker HCS-100, BBCH 73, 50% ET compensation): 0.750
- Normalised Difference Vegetation Index (NDVI) (Durum wheat; GreenSeeker HCS-100, BBCH 73, non-irrigated): 0.672
- Normalised Difference Vegetation Index (NDVI) (Durum wheat; GreenSeeker HCS-100, BBCH 75-83, 50% ET compensation): 0.705
- Normalised Difference Vegetation Index (NDVI) (Durum wheat; GreenSeeker HCS-100, BBCH 75-83, non-irrigated): 0.557
- Normalised Difference Vegetation Index (NDVI) (Durum wheat; GreenSeeker HCS-100, BBCH 83-85, 50% ET compensation): 0.673
- Normalised Difference Vegetation Index (NDVI) (Durum wheat; GreenSeeker HCS-100, BBCH 83-85, non-irrigated): 0.468
- Normalised Difference Vegetation Index (NDVI) (Durum wheat; GreenSeeker HCS-100, BBCH 85, 50% ET compensation): 0.572
- Normalised Difference Vegetation Index (NDVI) (Durum wheat; GreenSeeker HCS-100, BBCH 85, non-irrigated): 0.375
- Normalised Difference Vegetation Index (NDVI) (Durum wheat; GreenSeeker HCS-100, BBCH 87, 50% ET compensation): 0.464
- Normalised Difference Vegetation Index (NDVI) (Durum wheat; GreenSeeker HCS-100, BBCH 87, non-irrigated): 0.185
- Normalised Difference Vegetation Index (NDVI) (Durum wheat; RapidSCAN CS-45, BBCH 69, 50% ET compensation): 0.663
- Normalised Difference Vegetation Index (NDVI) (Durum wheat; RapidSCAN CS-45, BBCH 69, non-irrigated): 0.592
- Normalised Difference Vegetation Index (NDVI) (Durum wheat; RapidSCAN CS-45, BBCH 73, 50% ET compensation): 0.657
- Normalised Difference Vegetation Index (NDVI) (Durum wheat; RapidSCAN CS-45, BBCH 73, non-irrigated): 0.625
- Normalised Difference Vegetation Index (NDVI) (Durum wheat; RapidSCAN CS-45, BBCH 83-85, 50% ET compensation): 0.572
- Normalised Difference Vegetation Index (NDVI) (Durum wheat; RapidSCAN CS-45, BBCH 83-85, non-irrigated): 0.393
- Normalised Difference Vegetation Index (NDVI) (Durum wheat; RapidSCAN CS-45, BBCH 85, 50% ET compensation): 0.538
- Normalised Difference Vegetation Index (NDVI) (Durum wheat; RapidSCAN CS-45, BBCH 85, non-irrigated): 0.320
- Normalised Difference Vegetation Index (NDVI) (Durum wheat; RapidSCAN CS-45, BBCH 87, 50% ET compensation): 0.204
- Normalised Difference Vegetation Index (NDVI) (Durum wheat; RapidSCAN CS-45, BBCH 87, non-irrigated): 0.083
- Protein content (Durum wheat; non-irrigated): 12.68%
- Grain Yield (Durum wheat; non-irrigated): 57.73 dT/Ha
- TGW (Durum wheat; non-irrigated): 51.16 g
- No. of grains per ear (Durum wheat; non-irrigated): 37.88
- Dry weight of pods (Soybean plants [2]; 0.75 l/ha @ R1): 114.8 % of control
- Dry weight of pods (Soybean plants [2]; 0.75 l/ha @ R3): 122.7 % of control
- production of the enzyme glutathione reductase compared to the untreated control (glutathione reductase): increase in the production of the enzyme glutathione reductase
- Average plant colour (increase/decrease (%) compared to negative control treatment) (Soybean plants [3]; 3 days after application): 1.3%
- Digital biomass (increase/decrease (%) compared to negative control treatment) (Soybean plants [3]; 3 days after application): 2.6%
- Average plant colour (increase/decrease (%) compared to negative control treatment) (Soybean plants [3]; 7 days after application): 0.4%
- Digital biomass (increase/decrease (%) compared to negative control treatment) (Soybean plants [3]; 7 days after application): 0.4%
- Average plant colour (increase/decrease (%) compared to negative control treatment) (Soybean plants [3]; 10 days after application): -0.4%

Reference: patent publication EP3426036B1, “CROP ENHANCEMENT” (priority 2016, dated 2017)
